Assay results reported in PMC10086185, “Synthesis, radiolabeling, and evaluation of a (4-quinolinoyl)glycyl-2-cyanopyrrolidine analogue for fibroblast activation protein (FAP) PET imaging” (Frontiers in Bioengineering and Biotechnology, 2023).
Where two headings read alike, the source gives them in different places.

What was measured:
FAP = details: cited from earlier work; for EC50: ref Lindner et al., 2018
U87MG cells = experiment: Cellular uptake of [^18F]3 in U87MG cells; assay type: cell-based; details: U87 cells; compound 3 10 µM
Experimental: (§1) Briefly, all cells were divided into the following two groups: A: blocking group and B: vehicle group. All cells were cultured, grouped, and plated (approximately 2*10^6 cells per well) before use. Cells were treated with [^18F]3 (74 KBq) and incubated at 37°C under a 5% CO2 atmosphere. […] Incubated at 37°C for 1 h, the medium from each well was removed, and the cells were washed twice with 1 mL of PBS. The medium and the PBS from each well were combined and counted in a Gamma counter (PerkinElmer Wizard 2470) for radioactivity counts. The cells were then handled with 1 mL of 1 M NaOH, and the lysates were also counted in the Wizard 2470 gamma counter. The uptake ratios for each group were then calculated with this equation: %Dose = […](medium counts + PBS counts + cell lysate counts).

[1] = system: A549-FAPI xenograft tumors; experiment: Micro-PET/CT imaging, A549-FAPI xenograft tumors; assay type: in vivo, BALB/c nude mice; details: A549-FAPI tumors; pre-injection of compound 3, 2 mg/kg
Experimental: BALB/c nude mice used in this study were obtained from the Animal Center of Sichuan University. Tumor-bearing mouse models were established by the subcutaneous injection of 100 µL of PBS suspension containing approximately 1*10^6 tumor cells to the body side of the subjects. The tumor volume was monitored every day, and the tumor-bearing mice were ready for imaging once the tumor volume reached 0.5 mm^3 (tumor volume can be calculated by this equation: Volume = 0.5 * long tail * short tail *short tail). Micro-PET/CT imaging studies were performed on the IRIS Micro-PET/CT system (Inviscan SAS, France). Tumor-bearing mice were injected with approximately 11.2–14.8 MBq of [^18F]3 (200 µL) via the tail vein under anaesthetization by isoflurane. Static PET images were obtained at designated time points and were reconstructed with a 3D-OSEM algorithm using a Monte Carlo-based accurate detector model. Then, 170 sec-CT acquisition was conducted with 50 kV, 1 mA X-ray output for attenuation correction and anatomical orientation. ROIs (regions of interest) were drawn on the lung, kidney, liver, and tumor by OsiriX software. SUV (standardized uptake value) of the ROIs was directly obtained from OsiriX for each subject according to this formula: SUV = Voxal value (Bq/mL) * Body weight (kg)/(Decay corrected Dose (Bq) * 1,000 (g/kg)).
BALB/c nude mice used in this study were obtained from the Animal Center of Sichuan university. Tumor-bearing mice model were established by the subcutaneous injection of 100 µL of PBS suspension containing approximately 1*10^6 tumor cells to the body side of the subjects. The tumor volume was monitored every day and the tumor-bearing mice were ready for imaging once the tumor volume reach 0.5 mm^3 (tumor volume can be calculated by this equation: Volume = 0.5 * long tail * short tail *short tail). Micro-PET/CT imaging studies were performed on the IRIS Micro-PET/CT system (Inviscan SAS, France). Tumor-bearing mice were injected with approximately 11.2-14.8 MBq of [^18F]3 (200 µL) via tail vein under anaesthetization by isoflurane. Static PET images were obtained at designated time points and were reconstructed with a 3D-OSEM algorithm using a Monte-Carlo based accurate detector model. A 170 sec-CT acquisition was conducted with 50 kV, 1 mA X-ray output for attenuation correction and anatomical orientation. ROIs (regions of interest) were drawn on lung, kidney, liver and tumor by Osirix software. SUV (standardized uptake value) of the ROIs was directly obtained from Osirix for each subject according to this formula: SUV = Voxal value (Bq/mL) * Body weight (kg)/(Decay corrected Dose (Bq) * 1000 (g/kg)).

[2] = system: A549-FAPI cells (human FAP-expressing A549); experiment: Cellular uptake of [^18F]3 in A549-FAPI cells; assay type: cell-based; details: compound 3 10 µM
Experimental: as §1

[3] = ref Jansen et al., 2013, Jansen et al., 2014, read-out: FAP IC50
[4] = FAP, ref Wang et al., 2022, read-out: IC50

N#C[C@@H]1CC(F)(F)CN1C(=O)CNC(=O)c1ccnc2ccc(F)cc12 [compound 3]
Inhibitory activity against FAP (FAP; ref previous SAR studies): nanomolar activity
Uptake in blocking group as % of vehicle group (U87MG cells): 79.38%
Inhibition of tumor SUV [1]: over 50%
Uptake in blocking group as % of vehicle group [2]: 52.34%

N#C[C@@H]1CCCN1C(=O)CNC(=O)c1ccnc2ccc(F)cc12 [compound 2]
IC50 (FAP; [3]): 10.3 nM

[11CH3]Oc1ccc2nccc(C(=O)NCC(=O)N3CCC[C@H]3C#N)c2c1 [[^11C]RJ001]
IC50 (FAP; [4]): 9.2 nM

[11CH3]Oc1ccc2nccc(C(=O)NCC(=O)N3CC(F)(F)C[C@H]3C#N)c2c1 [[^11C]RJ002]
IC50 (FAP; [4]): 8.5 nM

N#C[C@@H]1CCCN1C(=O)CNC(=O)c1ccnc2ccc(OCCCN3CCN(C(=O)CN4CCN(CC(=O)O)CCN(CC(=O)O)CCN(CC(=O)O)CC4)CC3)cc12 [FAPI-02]
EC50 (FAP): 21 nM

N#C[C@@H]1CC(F)(F)CN1C(=O)CNC(=O)c1ccnc2ccc(OCCCN3CCN(C(=O)CN4CCN(CC(=O)O)CCN(CC(=O)O)CCN(CC(=O)O)CC4)CC3)cc12 [FAPI-04]
EC50 (FAP): 6.5 nM
